Results as given in patent US20180280528A1, “ANTIFOLATE CONJUGATES FOR TREATING INFLAMMATION” (ENDOCYTE, INC., priority 2015, published 2018).

Tests used:
Pharmacokinetics in rats = test: Pharmacokinetics in rats
Protocol: Each rat was used for collection of blood samples for a maximum of 4 time points. […] The samples were centrifuged for 3 minutes at 2000×g (Eppendorf 5417R centrifuge) to obtain plasma. The plasma samples were stored at −80° C. until LC-MS/MS analysis.
(§1) LC-MS/MS analysis utilized a Waters Acquity UPLC system paired with a Waters Quattro Premier XE tandem quadrupole mass spectrometer operating in ESI positive mode. Prior to injection, K3EDTA plasma samples were processed using a Phenomenex Strata X-A solid phase extraction (SPE) plate. All plasma samples were fortified with N-Maleoyl-β-alanine, mannitol, and acetic acid. Briefly, 50 μL of plasma diluted with 50 μL of internal standard solution and 500 μL 1000:4:1.5 water:ammonium hydroxide:formic acid was mixed and loaded onto a preconditioned Strata X-A SPE plate. Aqueous and organic washes were then applied followed by elution of all analytes with 300:200:7.5 methanol:water:formic acid. The samples were evaporated until approximately 30 μL remained in all wells and 30 μL of 9:1 water:ammonium hydroxide was then added. Finally, the plate was sealed, mixed, and centrifuged prior to transfer to the 2-8° C. Acquity autosampler. Note: During EC1669 analysis, EC0470 was converted to a hydrazone product for bioanalysis. Acetone (500 μL) was added to all samples after the first evaporation step followed by sealing all wells and heating at 50° C. for one hour. After this step, the acetone was evaporated and the extraction completed as described above.
(§2) A 10 μL sample volume was applied to the Waters BEH Shield RP18 100×2.1 mm, […] UPLC column operating at a flow rate of 0.4 mL/min while being maintained at 45° C. A gradient between mobile phase A (1000:4:1.5 water:ammonium hydroxide:formic acid) and mobile phase B (acetonitrile) was used to separate the analytes. The gradient was held at 2% B for the first 30 seconds of the chromatographic run followed by increasing to 20% B by 2.5 minutes. A rapid gradient from 60-90% B is then used to clean the column prior to equilibration at 2% B to complete the 4 minute run cycle.
(§3) For EC1669 MS/MS analysis, EC1669 and its known major metabolites, EC1886 and […], were optimized and monitored. […] In all cases, internal standard response was used to generate response ratios for each analyte. When calibrated, data was regressed using MassLynx 4.1 software. The table below lists transitions for analytes and internal standards monitored for LC-MS/MS bioanalysis.

Pharmacokinetics in dogs = conditions: for half-life: male
Protocol: (§4) The samples were centrifuged under refrigeration for at least 10 minutes at 3000 rpm and the plasma generated stored at −20° C. until LC-MS/MS analysis.
as §4, §1, §2, §3

[1] = test system: Rat adjuvant arthritis (AIA); test: Rat adjuvant arthritis (AIA) treatment studies; format: in vivo
Protocol: Female Lewis rats (175-200 g) were purchased from Harlan Sprague Dawley (Indianapolis, Ind.) and allowed to acclimate for 1 week. Generally, rats were fed a folate-deficient diet (Harlan Teklad) for 9-10 days prior to arthritis induction.
Rat adjuvant arthritis (AIA) was induced by intradermal inoculation (at the base of tail) of 0.45-0.46 mg of heat-killed Mycobacteria butyricum (BD Diagnostic Systems, Sparks, Md.) in 100 μL light mineral oil (Sigma). […] During the course of disease development, animals were weighed at least 3 times a week. Paw edema (degree of arthritis) were scored 3 times a week as follows: 0=no edema or arthritis; 1=swelling in one type of joint; 2=swelling in two types of joint; 3=swelling in three types of joint; 4=swelling of the entire paw. A total score for each rat is calculated by adding up the scores for each of the four paws, giving a maximum of 16 per animal.
On the first day of treatment, rats with desired arthritis scores were distributed evenly across the control and treatment groups (n=5). […] All compounds and conjugates were administered subcutaneously (s.c.) starting 9 days after arthritis induction with biweekly (BIW, Mondays and Thursdays) or once-a-week (QW, Mondays) dosing for two consecutive weeks. At the completion of each study (˜4 days after the last treatment), rats were euthanized by CO2 asphyxiation and processed for paw weight (cut at the hairline) and spleen weight.
The rat AIA model resembles many characteristics of human rheumatoid arthritis and it is very aggressive. […] The animals in the AIA control group were left untreated.

[2] = rat plasma, EC1669 dosed SC 500 nmol/kg
[3] = beagle dog plasma, EC1669 dosed SC 2.4 mg/kg (1073 nmol/kg), N=4
[4] = female, Lewis, rat, in vivo, sc, 500 nmol/kg
[5] = beagle, dog, in vivo, sc, 2.4 mg/kg

Question: With NNC(=O)CC[C@H](NC(=O)c1ccc(NCc2cnc3nc(N)nc(N)c3n2)cc1)C(=O)O [EC0470, aminopterin gamma-hydrazide] as the compound, how does the AUCinf (Pharmacokinetics in rats; [2]) read?
Answer: 65.9 nM·h

Question: What about the AUClast (Pharmacokinetics in rats; [2]) of the same compound?
Answer: 64.7 nM·h

Question: And the Cmax (Pharmacokinetics in rats; [2])?
Answer: 0.0212 µM

Question: And the Tmax (Pharmacokinetics in rats; [2])?
Answer: 1 h

Question: What about the t1/2 (Pharmacokinetics in rats; [2]) of the same compound?
Answer: 1.64 h

Question: And the AUClast (Pharmacokinetics in dogs; [3])?
Answer: 510 nM·h

Question: And the Cmax (Pharmacokinetics in dogs; [3])?
Answer: 0.0665 µM

Question: What about the Tmax (Pharmacokinetics in dogs; [3]) of the same compound?
Answer: 3.25 h

Question: What about the t1/2 (Pharmacokinetics in dogs; [3]) of the same compound?
Answer: 4.38 h

Question: With Nc1nc(N)c2nc(CNc3ccc(C(=O)N[C@@H](CCC(=O)O)C(=O)O)cc3)cnc2n1 [EC1886, aminopterin, reference compound] as the compound, how does the AUCinf (Pharmacokinetics in rats; [4]) read?
Answer: 95.6 nM·h

Question: What about the AUClast (Pharmacokinetics in rats; [4]) of the same compound?
Answer: 94.7 nM·h

Question: What about the half-life (Pharmacokinetics in rats; [4]) of the same compound?
Answer: 0.997 h

Question: And the AUC(0-inf) (Pharmacokinetics in rats; female, Lewis, rat, in vivo, sc, 500 nmol/kg, AUCinf)?
Answer: 107 nM·h

Question: What about the AUClast (Pharmacokinetics in dogs; beagle dog plasma, EC2319 dosed SC 2.43 mg/kg (1074 nmol/kg), N=2) of the same compound?
Answer: 157 nM·h

Question: What about the AUC(0-t) (Pharmacokinetics in dogs; [5]) of the same compound?
Answer: 41.7 nM·h

Question: What about the Cmax (Pharmacokinetics in dogs; [5]) of the same compound?
Answer: 0.00941 µM

Question: What about the Tmax (Pharmacokinetics in dogs; [5]) of the same compound?
Answer: 3.5 h

Question: And the “AUClast of aminopterin released, higher from EC2319 than from EC1669” value (Pharmacokinetics in dogs; dogs, subcutaneous dosing)?
Answer: ~3.8 fold

Question: What about the “Cmax of aminopterin released, higher from EC2319 than from EC1669” value (Pharmacokinetics in dogs; dogs, subcutaneous dosing) of the same compound?
Answer: ~2.6 fold

Question: What about the half-life (Pharmacokinetics in dogs; beagle, dog, in vivo, iv, 1 mg/kg) of the same compound?
Answer: 2 h

Question: What about the half-life (Pharmacokinetics in dogs; beagle, dog, in vivo, sc, 2.43 mg/kg) of the same compound?
Answer: 2.74 h

Question: With N=c1[nH]c(N)nc2ncc(CNc3ccc(C(=O)N[C@@H](CCC(=O)NCCSSC[C@@H](NC(=O)[C@H](CCC(=O)NC[C@H](O)[C@@H](O)[C@H](O)[C@H](O)CO)NC(=O)[C@@H](CCC(=O)O)NC(=O)[C@H](CCC(=O)NC[C@H](O)[C@@H](O)[C@H](O)[C@H](O)CO)NC(=O)[C@@H](CCC(=O)O)NC(=O)[C@H](CCC(=O)NC[C@H](O)[C@@H](O)[C@H](O)[C@H](O)CO)NC(=O)CC[C@H](NC(=O)c4ccc(NCc5cnc6nc(N)[nH]c(=O)c6n5)cc4)C(=O)O)C(=O)O)C(=O)O)cc3)nc12 [EC2285] as the compound, how does the “anti-arthritic activity with concurrent EC0923 (arthritis score, paw weight, spleen weight, body weight)” value ([1]; Study 2, 500 nmol/kg BIW plus 500-fold molar excess EC0923 (250 μmol/kg)) read?
Answer: fully blocked by EC0923

Question: For COC(=O)[C@H](CCCCNC(=O)[C@H](CCC(=O)NC[C@H](O)[C@@H](O)[C@H](O)[C@H](O)CO)NC(=O)[C@H](CCC(=O)O)NC(=O)[C@H](CCC(=O)NC[C@H](O)[C@@H](O)[C@H](O)[C@H](O)CO)NC(=O)[C@H](CCC(=O)O)NC(=O)[C@H](CCC(=O)NC[C@H](O)[C@@H](O)[C@H](O)[C@H](O)CO)NC(=O)CC[C@H](NC(=O)c1ccc(NCc2cnc3nc(N)[nH]c(=O)c3n2)cc1)C(=O)O)NC(=O)CC[C@H](NC(=O)c1ccc(NCc2cnc3nc(N)[nH]c(=N)c3n2)cc1)C(=O)O [EC2413], which anti-arthritic activity ([1]; Study 3, 500 nmol/kg, BIW) is on record?
Answer: significant anti-arthritic activity

Question: What about the body weight ([1]; Study 3, 500 nmol/kg, BIW) of the same compound?
Answer: maintained a good body weight

Question: What about the “decreasing arthritis score, paw weight, and spleen weight” value ([1]; Study 3, 500 nmol/kg, BIW, two consecutive weeks) of the same compound?
Answer: inferior to both EC2319 and EC1669

Question: And the “effectiveness in all parameters assessed” value ([1]; Study 3, 1000 nmol/kg (QW))?
Answer: less effective than EC2413 dosed at 500 nmol/kg (BIW)

Question: What does the source list for COC(=O)[C@H](CSC1CC(=O)N(CCC(=O)O)C1=O)NC(=O)CC[C@H](NC(=O)c1ccc(NCc2cnc3nc(N)[nH]c(=N)c3n2)cc1)C(=O)O (stereo partly shown) [EC2496]?
Answer: half-life (Pharmacokinetics in dogs; beagle, dog, plasma, iv, 1 mg/kg): 1.28 h; half-life (Pharmacokinetics in dogs; beagle, dog, plasma, sc, 2.43 mg/kg): 2.14 h
